This note sets out measurements from ChEMBL document CHEMBL5107992, “Development of potent non-acylhydrazone inhibitors of intestinal sodium-dependent phosphate transport protein 2b (NaPi2b)” (Bioorg Med Chem, 2022).

A short description of series [1]: Aqueous solubility of compound in PBS buffer at pH 7.4. The format is physicochemical.
Series [2] addresses T1, Sodium-dependent phosphate transport protein 2B (Homo sapiens, UniProt O95436).
T1 sequence (O95436 whole entry): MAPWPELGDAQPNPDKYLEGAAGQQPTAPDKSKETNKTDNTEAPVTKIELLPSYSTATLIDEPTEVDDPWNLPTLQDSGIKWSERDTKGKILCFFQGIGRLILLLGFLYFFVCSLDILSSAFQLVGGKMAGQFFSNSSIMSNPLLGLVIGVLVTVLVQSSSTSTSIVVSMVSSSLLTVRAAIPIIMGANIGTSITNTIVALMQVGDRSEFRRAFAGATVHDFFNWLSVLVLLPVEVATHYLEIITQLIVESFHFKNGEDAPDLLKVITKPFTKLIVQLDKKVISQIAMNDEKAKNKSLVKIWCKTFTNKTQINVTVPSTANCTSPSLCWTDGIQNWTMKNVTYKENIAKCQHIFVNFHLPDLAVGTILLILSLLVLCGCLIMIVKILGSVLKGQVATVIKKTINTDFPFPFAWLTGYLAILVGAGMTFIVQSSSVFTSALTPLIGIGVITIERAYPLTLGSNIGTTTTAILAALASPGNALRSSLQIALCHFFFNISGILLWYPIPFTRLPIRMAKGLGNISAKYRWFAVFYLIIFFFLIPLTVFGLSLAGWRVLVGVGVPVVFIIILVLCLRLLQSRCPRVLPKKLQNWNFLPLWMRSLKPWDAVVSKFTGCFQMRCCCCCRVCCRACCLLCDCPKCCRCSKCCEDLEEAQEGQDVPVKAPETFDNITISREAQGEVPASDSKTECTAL
In words: Inhibition of human NaPi2b transfected in human KJMGER8 cells assessed as reduction in H2[33P]O4 uptake incubated for 60 mins by TopCount scintillation counting method. It is filed as cell-based.

The nature of series [3]: Membrane permeability of compound. It is filed as ADME. Conditions: not told; read-out: permeability.
A short description of series [4]: Intestinal availability in rat at 3 mg/kg, po measured after 120 mins by LC/MS-MS analysis. It is filed as ADME, organism-based. As to conditions: in vivo, 2 h.
Series [5] is described as follows: Aqueous solubility of compound in PBS buffer at pH 6. It is filed as physicochemical.
A short description of series [6]: Intestinal availability in Sprague-Dawley rat. It is filed as ADME.

In brackets after ≈: the same amount, converted by molar mass. Some results are limits rather than exact numbers.

On to `CC1(C)CCc2c(sc3nc(-c4cccc(COCCOCCOCCOCCOCCOCCO)c4)oc(=O)c23)C1`, for which, in series [1], the solubility (commonly the dissolved amount per volume that the medium holds) is 36 µM (≈ 21.8 µg/mL). For the same compound, the IC50 – broadly, the midpoint of a concentration-inhibition curve – in series [2] stood at 2.88 µM.
As to `Cc1nnc(-c2ccc(CCc3ccc(NC(=O)c4c(NC(=O)c5cccc(CN(C)CCOCCOCCOCCC(=O)O)c5)sc5c4CCC(C)(C)C5)cc3)cc2)o1`, in series [3], the Papp is < 0.9 nm/s. The solubility in series [1] turned out to be 96 µM (≈ 80.5 µg/mL); in series [5] it was 52 µM (≈ 43.6 µg/mL). Besides, the IC50 in series [2] came out at 0.014 µM. This compound displayed a FaFg in series [4] of 5.9%.
With `COCCN(CCOCCOCCOCCOCCOCCOCc1cccc(C(=O)Nc2sc3c(c2C(=O)N/N=C/c2ccc(Cl)c(C(F)(F)F)c2)CCC(C)(C)C3)c1)CC(=O)O`, the FaFg in series [6] amounted to 0.1%.
`Cc1nnc(-c2ccc(CCc3ccc(NC(=O)c4c(NC(=O)c5cccc(COCCOCCOCCOCCOCCOCCOCC(=O)O)c5)sc5c4CCC(C)(C)C5)cc3)cc2)o1` registered a solubility in series [1] of 62 µM (≈ 58.5 µg/mL). The IC50 in series [2] came to 0.103 µM.
The like results for `Cc1nnc(-c2ccc(CCc3ccc(NC(=O)c4c(NC(=O)c5cccc(COCCOCCOCCOCC(=O)O)c5)sc5c4CCC(C)(C)C5)cc3)cc2)o1` were, in that order, 156 µM (≈ 127 µg/mL) and 0.061 µM.
`Cc1nnc(-c2ccc(CCc3ccc(NC(=O)c4c(NC(=O)c5cccc(CSCCOCCOCCOCCOCCOCCOCCOCCOCCC(=O)O)c5)sc5c4CCC(C)(C)C5)cc3)cc2)o1` came in with a solubility in series [1] of 91 µM (≈ 96.6 µg/mL). For the same compound, the IC50 in series [2] came out at 0.024 µM.
The corresponding values for `COc1ccc(NC(=O)c2c(NC(=O)c3cccc(COCCOCCOCCOCCOCCOCCO)c3)sc3c2CCC(C)(C)C3)cc1` are 2.3 µM (≈ 1.68 µg/mL) and 1.14 µM.
Take `CC1(C)CCc2c(sc(NC(=O)c3cccc(COCCOCCOCCOCCOCCOCCO)c3)c2C(=O)Nc2ccccc2)C1`: the solubility in series [1] came out at 81 µM (≈ 56.6 µg/mL). Also, the IC50 in series [2] was determined as 1.4 µM.
For the compound `CCC(CC)N(CCN(C)C(=O)CCC(=O)NCCOCCOCCOCCO)Cc1cccc(C(=O)Nc2sc3c(c2C(=O)c2cnn(-c4ccc(Cl)c(C(F)(F)F)c4)c2)CCC(C)(C)C3)c1`, the FaFg in series [6] amounted to 0.2%.
As for `CC1(C)CCc2c(sc(NC(=O)c3cccc(OCCOCCOCCOCCOCCOCCO)c3)c2C(=O)Nc2ccc(CCc3ccc(C(=O)O)cc3)cc2)C1`, in series [1], the solubility turned out to be 115 µM (≈ 95.8 µg/mL). Moreover, the IC50 in series [2] was < 0.1 µM.
The like results for `Cc1cc(NC(=O)c2c(NC(=O)c3cccc(OCCOCCOCCOCCOCCOCCOCC(=O)O)c3)sc3c2CCC(C)(C)C3)ccc1CCc1ccc(-c2nccs2)cc1` were, in that order, 87 µM (≈ 82.1 µg/mL) and 0.288 µM.
The corresponding values for `Cc1cc(NC(=O)c2c(NC(=O)c3cccc(OCCOCCOCCOCCOCCOCCOCC(=O)O)c3)sc3c2CCC(C)(C)C3)ccc1CCc1ccc(-c2ncco2)cc1` are 79 µM (≈ 73.3 µg/mL) and 0.043 µM.
In series [1], `COC(=O)c1ccc(CCc2ccc(NC(=O)c3c(NC(=O)c4cccc(COCCOCCOCCOCCOCCOCCO)c4)sc4c3CCC(C)(C)C4)cc2C)cc1` came in with a solubility of 0.72 µM (≈ 0.63 µg/mL). In addition, the IC50 in series [2] is < 0.1 µM.
The like results for `COC(=O)c1ccc(CCc2ccc(NC(=O)c3c(NC(=O)c4cccc(OCCOCCOCCOCCOCCOCCO)c4)sc4c3CCC(C)(C)C4)cc2)cc1` were, in that order, 1.6 µM (≈ 1.36 µg/mL) and < 0.1 µM.
`CC1(C)CCc2c(sc(NC(=O)c3cccc(COCCOCCOCCOCCOCCOCCO)c3)c2C(=O)Nc2ccc(Cc3ccccc3)cc2)C1` showed a solubility in series [1] of 0.48 µM (≈ 0.379 µg/mL). Besides, the IC50 in series [2] was < 0.1 µM.
The corresponding values for `COC(=O)c1ccc(CCc2ccc(NC(=O)c3c(NC(=O)c4cccc(OCCOCCOCCOCCOCCOCCOCC(=O)O)c4)sc4c3CCC(C)(C)C4)cc2C)cc1` are 116 µM (≈ 107 µg/mL) and 0.071 µM.
The corresponding values for `CCc1ccc(NC(=O)c2c(NC(=O)c3cccc(COCCOCCOCCOCCOCCOCCO)c3)sc3c2CCC(C)(C)C3)cc1` are 0.39 µM (≈ 0.284 µg/mL) and < 0.1 µM.
